According to patent US10543254B2, “Composition containing neuropeptide Y for inhibiting side effects of anticancer agents” (KYUNGPOOK NATIONAL UNIVERSITY INDUSTRY-ACADEMIC COOPERATION …, priority 2014, dated 2020):

Key:
[1] = tested on: cisplatin-induced neuropathy; test: Hot-plate (heated-pad) test of sensory neuropathy after seven cycles of cisplatin with or without NPY; type: in vivo, mice
Description: (§1) Cisplatin (Enzo; 10 mg per kg body weight once per week) was used to induce SNS injury. Mice received i.p. injections of cisplatin for 7 weeks as described. The mice were euthanized after 2 weeks after the last injection of cisplatin (for full bone marrow recovery).
(§2) To assess neuroprotection from cisplatin, mice were injected i.p. with NPY (Bachem, H-6375) daily during the 7-week cisplatin treatment period.
For measuring effects of different treatments on sensory responses, a hot-plate test was performed.
A hot plate (Leica) was maintained at 50° C. and each mouse was positioned on the end of the heated surface, first nociception, that is, a time until jumping or paw licking was measured. A cut-off time was set as 60 seconds. For the measurement, the heated surface was cleaned with a detergent and ethanol and a temperature was maintained at 50° C.
Next, control, Lyz2-cre; Y1^fl/fl, or Col1a1-cre; Y1^fl/fl mice were treated with seven cycles of cisplatin for the induction of neuropathy. In some animals, NPY was administered during cisplatin chemotherapy. […]
FIG. 2B illustrates a quantitative analysis result of sympathetic neuropathy (after 2 weeks after the last cisplatin injection) in a control group, Lyz2-cre; Y1^fl/fl or Col1a1-cre; Y1^fl/fl mice treated with cisplatin alone or cisplatin and NPY (n=6-10 mice per group, i.p). […]

[2] = tested on: cisplatin-induced sympathetic nervous system (SNS) injury; test: Quantification of Th+ fibers and nestin-positive and CD31+ endothelial cells in bone marrow after cisplatin with or without NPY; type: in vivo, mice
Description: as §1, §2
Next, control, Lyz2-cre; Y1^fl/fl, or Col1a1-cre; Y1^fl/fl mice were treated with seven cycles of cisplatin for the induction of neuropathy. In some animals, NPY was administered during cisplatin chemotherapy. FIG. 2A is an experimental design for determining an effect of the Y1 receptor in the macrophages or osteoblasts in cisplatin-induced neuropathy, after NPY treatment.
Further, FIG. 2E is a diagram illustrating a quantitative analysis of a Th^+ fiber in BM of each group (n=5-6 mice per group).
FIG. 2F is a diagram illustrating the number (n=5-6 mice per group) of nestin-positive and CD31^+ endothelial cells per femoral region of each group.

[3] = tested on: cisplatin-induced bone marrow injury; test: Bone marrow transplantation after lethal irradiation in cisplatin-treated mice with or without NPY: survival and bone marrow recovery; type: in vivo
Description: as §1, §2
(§3) The mice were lethally irradiated (10 Gy, two split doses) and injected with 1×10^6 BM from CD45.1^+ (BoyJ) mice. After 4 weeks, the mice were sacrificed, and bone marrow and blood were obtained for analysis.
(§4) Next, to evaluate further whether NPY treatment prevents cisplatin-induced mouse death and injury of BM, bone marrow mononuclear cells (BMNCs) were transplanted into cisplatin-treated mice with or without NPY treatment after lethal irradiation. FIG. 2H illustrates an experimental design for verifying whether NPY protects a Th^+ fiber from cisplatin-induced bone marrow injury and whether to accelerate posttransplant bone marrow recovery.
FIG. 2I illustrates a survival result of mice of each group (n=10-15 mice per group).
FIG. 2J is a diagram illustrating the number of BMNCs (left side), a percentage of LSK cells (middle), and LT-HSCs (right side) in BM of WT mice treated with PBS, cisplatin or NPY, which are evaluated after 4 weeks after transplanting bone marrow (n=5-6 mice per group).
FIG. 2K illustrates a percentage of nestin-positive and CD31^+ endothelial cells in the femur of each group.

[4] = tested on: cisplatin-induced bone marrow injury; test: Complete blood count 4 weeks after bone marrow transplantation; type: in vivo, mice; settings: for HCT (hematocrit) / Hgb (hemoglobin) / MCH (mean corpuscular hemoglobin) / MCHC (mean corpuscular hemoglobin concentration) / MCV (mean cell volume) / MPV (mean platelet volume) / PLT (platelets) / RBC (red blood cell) / RDW-CV (red cell volume distribution width-coefficient of variation) / WBC (white blood cell): complete blood count 4 weeks after transplantation, groups PBS or cisplatin / PBS or NPY
Excerpt: as §3, §4
Table 1 is a diagram illustrating an increase in blood cell recovery in NPY-treated mice after cisplatin treatment. A complete blood count was performed by targeting PBS or cisplatin-treated mice after 4 weeks after transplantation and after NPY treatment.

[5] = NPY i.p. daily during 7-week cisplatin treatment, cisplatin-treated control or Col1a1-cre, Y1fl/fl mice

Molecule: neuropeptide Y [NPY]
- sensory neuropathy (hot-plate latency) [1, 5]: improved
- number of nestin-positive and CD31+ endothelial cells [2, 5]: improved
- reduced density of Th+ fibers in BM [2, 5]: improved
- protection of Th+ fibers and perivascular niche cells ([2]; cisplatin-treated Lyz2-cre, Y1fl/fl mice (no Y1 receptor in macrophages)): did not show NPY-mediated protection
- numbers of nestin-positive and CD31+ endothelial cells in the femur ([3]; cisplatin-treated mice after transplantation): restored
- bone marrow function after transplantation (BMNCs, LSK cells, LT-HSCs) ([3]; cisplatin-treated mice, 4 weeks after transplanting bone marrow): restored
- mouse survival ([3]; cisplatin-treated mice, lethal irradiation and BMNC transplantation): enhanced
- blood cell recovery ([4]; NPY-treated mice after cisplatin treatment, 4 weeks after transplantation): increase
- HCT (hematocrit) [4]: 49.5 ± 9.3%
- Hgb (hemoglobin) [4]: 14.4 ± 0.9 g/dL
- MCH (mean corpuscular hemoglobin) [4]: 17.35 ± 1.4 pg
- MCHC (mean corpuscular hemoglobin concentration) [4]: 33.2 ± 7.6 g/dL
- MCV (mean cell volume) [4]: 58.2 ± 8.8 fL
- MPV (mean platelet volume) [4]: 11.4 ± 2.8 fL
- PLT (platelets) [4]: 219.3 ± 65.8 m/mm^3
- RBC (red blood cell) [4]: 8.4 ± 0.4 m/mm^3
- RDW-CV (red cell volume distribution width-coefficient of variation) [4]: 19.4 ± 0.8%
- WBC (white blood cell) [4]: 5.3 ± 0.4 m/mm^3

Molecule: N.N.[Cl][Pt][Cl] [Cisplatin, cisplatin, reference compound]
- sensory neuropathy (hot-plate latency) ([1]; 2 weeks after the last injection, cisplatin 10 mg per kg i.p. once per week for 7 weeks): had sensory neuropathy
- HCT (hematocrit) [4]: 53.5 ± 6.1%
- Hgb (hemoglobin) [4]: 12.8 ± 0.8 g/dL
- MCH (mean corpuscular hemoglobin) [4]: 17.1 ± 0.8 pg
- MCHC (mean corpuscular hemoglobin concentration) [4]: 27.0 ± 4.2 g/dL
- MCV (mean cell volume) [4]: 66.1 ± 5.2 fL
- MPV (mean platelet volume) [4]: 11.3 ± 2.3 fL
- PLT (platelets) [4]: 165.7 ± 42.4 m/mm^3
- RBC (red blood cell) [4]: 6.1 ± 0.8 m/mm^3
- RDW-CV (red cell volume distribution width-coefficient of variation) [4]: 19.4 ± 0.3%
- WBC (white blood cell) [4]: 2.2 ± 0.4 m/mm^3
